Each block holds one molecule with its values, some of them ahead of it.
Columns and labels:
[1] = target: T1, Ec LeuRS (Escherichia coli, UniProt P07813); details: leucine activation; 50 mM HEPES pH 7.5, 10 mM MgCl2, 10 μM ATP, 50 mM amino acid, pyrophosphatase
T1 construct: gene leuS

[2] = target: T2, LeuAC (LeuRS urzyme), TEV-cleaved (Pyrococcus horikoshii, UniProt O58698); experiment: Sephadex G15 size-exclusion co-elution of [^[…]] leucine label; format: binding; details: labelled compound; formed in situ from [^14C] leucine and ATP, presumed leucyl-5′AMP; 50 mM HEPES pH 7.5, 20 mM MgCl2, 37 °C; only a simulated upper limit for KD
T2 construct: gene leuS; MBP fusion (pMAL-c2x, E. coli), TEV-cleaved but MBP not separated; his-tagged

[3] = target: T3, P. horikoshii LeuRS (Pyrococcus horikoshii, UniProt O58698); experiment: nitrocellulose filter binding, [^[…]] leucine; details: labelled compound; formed in situ from 25 μM [^14C] leucine and 50 μM ATP, presumed leucyl-5′AMP; pH 7.5, 20 mM MgCl2, 37 °C
T3 construct: gene leuS; full length, synthetic gene in pET-11a, E. coli BL21-CodonPlus(DE3)-RIPL, Ni-NTA purified (tag not described), heat step 80 °C
T3 sequence (O58698 1-967): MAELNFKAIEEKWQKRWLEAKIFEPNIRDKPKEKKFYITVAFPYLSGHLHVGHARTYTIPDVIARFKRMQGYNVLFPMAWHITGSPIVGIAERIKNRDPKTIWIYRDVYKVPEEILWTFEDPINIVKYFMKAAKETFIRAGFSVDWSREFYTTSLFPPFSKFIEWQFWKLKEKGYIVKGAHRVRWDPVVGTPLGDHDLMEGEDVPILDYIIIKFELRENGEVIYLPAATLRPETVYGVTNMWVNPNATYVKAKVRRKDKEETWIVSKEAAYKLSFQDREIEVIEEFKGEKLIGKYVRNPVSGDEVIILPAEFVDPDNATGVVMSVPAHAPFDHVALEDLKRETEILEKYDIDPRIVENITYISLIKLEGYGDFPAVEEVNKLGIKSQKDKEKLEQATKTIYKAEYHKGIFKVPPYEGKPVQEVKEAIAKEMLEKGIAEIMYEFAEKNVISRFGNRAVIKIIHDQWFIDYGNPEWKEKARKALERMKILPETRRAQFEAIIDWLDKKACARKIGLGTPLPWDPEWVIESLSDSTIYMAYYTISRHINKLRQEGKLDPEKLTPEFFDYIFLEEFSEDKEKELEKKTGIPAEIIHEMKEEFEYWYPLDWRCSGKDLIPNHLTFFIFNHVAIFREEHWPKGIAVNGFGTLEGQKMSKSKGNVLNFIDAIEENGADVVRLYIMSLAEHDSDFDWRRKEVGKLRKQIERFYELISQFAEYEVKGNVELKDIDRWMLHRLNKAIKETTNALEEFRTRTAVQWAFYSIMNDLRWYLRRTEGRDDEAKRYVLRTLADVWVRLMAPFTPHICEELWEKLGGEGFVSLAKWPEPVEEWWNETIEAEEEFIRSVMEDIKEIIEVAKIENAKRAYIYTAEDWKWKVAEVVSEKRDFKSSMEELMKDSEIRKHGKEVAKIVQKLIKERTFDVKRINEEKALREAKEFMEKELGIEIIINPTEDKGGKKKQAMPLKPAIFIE

[4] = substrate: CC(C)C[C@H](N)C(=O)O; experiment: purified protein; format: biochemical, Pyrococcus horikoshii; details: unit not printed beside the value (M inferred), tRNA^Leu and ATP co-substrates, 50 mM HEPES pH 7.5, 10 mM MgCl2

T1 sequence (P07813 whole entry): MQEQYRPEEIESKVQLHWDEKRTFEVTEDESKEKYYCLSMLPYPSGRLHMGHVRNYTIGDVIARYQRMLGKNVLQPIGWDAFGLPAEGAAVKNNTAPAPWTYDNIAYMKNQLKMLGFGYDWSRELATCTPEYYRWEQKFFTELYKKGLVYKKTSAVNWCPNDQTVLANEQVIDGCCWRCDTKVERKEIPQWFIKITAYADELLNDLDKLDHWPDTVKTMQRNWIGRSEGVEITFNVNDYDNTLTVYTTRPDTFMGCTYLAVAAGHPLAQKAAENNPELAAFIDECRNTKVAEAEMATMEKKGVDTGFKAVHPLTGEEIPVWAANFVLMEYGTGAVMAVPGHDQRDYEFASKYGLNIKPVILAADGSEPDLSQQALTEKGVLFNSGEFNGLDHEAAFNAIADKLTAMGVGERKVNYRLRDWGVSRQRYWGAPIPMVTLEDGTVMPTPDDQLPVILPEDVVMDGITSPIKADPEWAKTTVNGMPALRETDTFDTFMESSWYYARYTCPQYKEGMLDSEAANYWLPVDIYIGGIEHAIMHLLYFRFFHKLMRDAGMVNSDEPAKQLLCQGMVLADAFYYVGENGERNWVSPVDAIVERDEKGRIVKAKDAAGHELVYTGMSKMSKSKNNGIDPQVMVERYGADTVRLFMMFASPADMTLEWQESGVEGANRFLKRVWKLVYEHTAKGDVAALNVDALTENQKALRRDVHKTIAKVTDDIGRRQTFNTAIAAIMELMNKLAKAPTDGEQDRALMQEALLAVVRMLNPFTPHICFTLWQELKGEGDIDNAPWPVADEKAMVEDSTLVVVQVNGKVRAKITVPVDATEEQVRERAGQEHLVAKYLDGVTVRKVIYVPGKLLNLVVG

Molecule: Nc1ncnc2c1ncn2[C@@H]1O[C@H](COP(=O)(O)OP(=O)(O)OP(=O)(O)O)[C@@H](O)[C@H]1O [ATP]
single-turnover active-site titration, [^32P] ATP, TLC [1]: Full-length LeuRS from both E. coli and P. horikoshii produce minor amounts of ADP

moles [^14C] leucine/mole enzyme [3]: 0.48 ± 0.13 mol/mol
Molecule: CC(C)C[C@H](N)C(=O)OP(=O)(O)OC[C@H]1O[C@@H](n2cnc3c(N)ncnc32)[C@H](O)[C@@H]1O [leucyl-5′AMP]
Sephadex G15 size-exclusion co-elution of [^14C] leucine label [2]: lower limit on both the stoichiometry and affinity of the active LeuAC•leucyl-5′ AMP complex

B1: P. horikoshii LeuRS (Pyrococcus horikoshii OT3) (protein)
chain: MAELNFKAIEEKWQKRWLEAKIFEPNIRDKPKEKKFYITVAFPYLSGHLHVGHARTYTIPDVIARFKRMQGYNVLFPMAWHITGSPIVGIAERIKNRDPKTIWIYRDVYKVPEEILWTFEDPINIVKYFMKAAKETFIRAGFSVDWSREFYTTSLFPPFSKFIEWQFWKLKEKGYIVKGAHRVRWDPVVGTPLGDHDLMEGEDVPILDYIIIKFELRENGEVIYLPAATLRPETVYGVTNMWVNPNATYVKAKVRRKDKEETWIVSKEAAYKLSFQDREIEVIEEFKGEKLIGKYVRNPVSGDEVIILPAEFVDPDNATGVVMSVPAHAPFDHVALEDLKRETEILEKYDIDPRIVENITYISLIKLEGYGDFPAVEEVNKLGIKSQKDKEKLEQATKTIYKAEYHKGIFKVPPYEGKPVQEVKEAIAKEMLEKGIAEIMYEFAEKNVISRFGNRAVIKIIHDQWFIDYGNPEWKEKARKALERMKILPETRRAQFEAIIDWLDKKACARKIGLGTPLPWDPEWVIESLSDSTIYMAYYTISRHINKLRQEGKLDPEKLTPEFFDYIFLEEFSEDKEKELEKKTGIPAEIIHEMKEEFEYWYPLDWRCSGKDLIPNHLTFFIFNHVAIFREEHWPKGIAVNGFGTLEGQKMSKSKGNVLNFIDAIEENGADVVRLYIMSLAEHDSDFDWRRKEVGKLRKQIERFYELISQFAEYEVKGNVELKDIDRWMLHRLNKAIKETTNALEEFRTRTAVQWAFYSIMNDLRWYLRRTEGRDDEAKRYVLRTLADVWVRLMAPFTPHICEELWEKLGGEGFVSLAKWPEPVEEWWNETIEAEEEFIRSVMEDIKEIIEVAKIENAKRAYIYTAEDWKWKVAEVVSEKRDFKSSMEELMKDSEIRKHGKEVAKIVQKLIKERTFDVKRINEEKALREAKEFMEKELGIEIIINPTEDKGGKKKQAMPLKPAIFIE
notes: full length, synthetic gene in pET-11a, E. coli BL21-CodonPlus(DE3)-RIPL, Ni-NTA purified (tag not described), heat step 80 °C
Km [4]: 5.9 ± 0.8 × 10^−6 M

Reference: PMC9026127, “A Leucyl-tRNA Synthetase Urzyme: Authenticity of tRNA Synthetase Catalytic Activities and Promiscuous Phosphorylation of Leucyl-5′AMP” (International Journal of Molecular Sciences, 2022)
